# Columns and labels:
# A. baumannii ATCC 19606 = test: microbe, parasite or virus in culture; settings: broth microdilution, 18 h
# Method in brief: (§1)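 Broth microdilution; read-out = minimum inhibitory concentration, mg/L. Comparators: polymyxin B, colistin, vancomycin, gentamicin.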
# E. coli ATCC 25922 = test: microbe, parasite or virus in culture; settings: broth microdilution, 18 h, 37 °C
# Method in brief: as §1
# K. pneumoniae ATCC 13833 = test: microbe, parasite or virus in culture; settings: broth microdilution, 18 h
# Method in brief: as §1
# [1] = system: K. pneumoniae ATCC 700603; test: microbe, parasite or virus in culture; settings: ESBL strain; broth microdilution, 18 h
# Method in brief: as §1
# K. pneumoniae BAA 2146 = test: microbe, parasite or virus in culture; settings: NDM-1 positive strain; broth microdilution, 18 h
# Method in brief: as §1
# P. aeruginosa ATTC 27853 = test: microbe, parasite or virus in culture; settings: broth microdilution, 18 h
# Method in brief: as §1
# [2] = system: P. aeruginosa FADDI PA070; test: microbe, parasite or virus in culture; settings: Pmx-resistant clinical isolate; broth microdilution, 18 h
# Method in brief: as §1
# S. aureus ATCC 25923 = test: microbe, parasite or virus in culture; settings: Gram-positive strain; broth microdilution, 18 h
# Method in brief: as §1
# [3] = system: human proximal tubular epithelial cells (HK-2); test: in vitro
# Method in brief: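 HK-2 cells seeded 2000 cells/well in DMEM/F12 with 10% FBS, grown 24 h, then exposed to compounds (300 µM to 2.3 µM, 2-fold series; colistin/polymyxin B 1 mM to 7.8 µM) for 24 h at 37 °C. LDH in medium read at 450 nm after 30 min; cytotoxicity % relative to 1% Triton X-100 and untreated cells.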
Substance,MIC A. baumannii ATCC 19606 (A. baumannii ATCC 19606) [µg/mL],MIC E. coli ATCC 25922 (E. coli ATCC 25922) [µg/mL],MIC K. pneumoniae ATCC 13833 (K. pneumoniae ATCC 13833) [µg/mL],MIC K. pneumoniae ATCC 700603 [1] [µg/mL],MIC K. pneumoniae BAA 2146 (K. pneumoniae BAA 2146) [µg/mL],MIC P. aeruginosa ATTC 27853 (P. aeruginosa ATTC 27853) [µg/mL],MIC P. aeruginosa FADDI PA070 [2] [µg/mL],MIC S. aureus ATCC 25923 (S. aureus ATCC 25923) [µg/mL],CC50 [3] [µM],"CC50 ([3]; read-out: CC50 HK-2, LDH release, 24 h incubation) [µM]"
"colistin [Col 2, reference compound]",0.25,0.25,0.25,0.25,0.25,0.5,>32,>32,> 300,–
"polymyxin B [PmxB 1, reference compound]",0.25,1,1,0.5,0.25,0.5,32,>32,–,> 300
